What all share (type): cell-based
The target of assay [1] is T1, IRAK4 (Homo sapiens, UniProt Q9NWZ3).
T1 construct: endogenous in cells; host or cells: Karpas299
T1 sequence (Q9NWZ3 1-460): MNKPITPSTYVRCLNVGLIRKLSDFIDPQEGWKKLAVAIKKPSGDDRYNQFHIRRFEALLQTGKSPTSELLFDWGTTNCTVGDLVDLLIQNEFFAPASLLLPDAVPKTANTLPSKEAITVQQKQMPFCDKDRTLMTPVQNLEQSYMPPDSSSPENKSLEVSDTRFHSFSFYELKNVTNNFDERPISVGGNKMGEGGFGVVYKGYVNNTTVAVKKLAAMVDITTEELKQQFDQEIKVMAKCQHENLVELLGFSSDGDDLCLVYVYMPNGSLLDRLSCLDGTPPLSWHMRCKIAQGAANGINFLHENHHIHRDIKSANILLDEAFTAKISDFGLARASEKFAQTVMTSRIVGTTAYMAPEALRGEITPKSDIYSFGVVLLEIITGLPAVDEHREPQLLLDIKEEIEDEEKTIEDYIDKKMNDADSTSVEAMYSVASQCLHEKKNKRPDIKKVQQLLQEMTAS
Nature of the assay: IRAK4 Degradation Assay (Karpas299, HTRF/TR-FRET). An outline of the steps:
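Compound potency as DC50 (IC50) came from four-parameter fits of percent IRAK4 degradation. IRAK4 was measured by HTRF (665/620 nm) in lysates of Karpas299 cells seeded at 0.2 million per well. Cells had been treated with compound dilutions for 5 or 24 h.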
(In general: Time-resolved FRET reads energy transfer from a long-lived donor to a nearby acceptor.)

Assay [2] has as its system TNF-α production in THP-1 cells. Nature of the assay: TNF-α Production Assay in THP-1 Cells (LPS stimulated). Particulars: for IC50 / Emax: THP-1, 24 h; for Emax: read-out: TNF-α (THP-1) 24 h IMax. The gist of the method:
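Cells (0.2 million/well) pretreated with compounds for 24 h, then stimulated with LPS at 1 μg/mL final for 24 h. TNF-α in culture supernatant quantified by TR-FRET immunoassay.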

Assay [3] concerns IL-6 production in human PBMC. Nature of the assay: IL-6 Production Assay in Human PBMC (LPS stimulated). Particulars: for IC50 / Emax: Homo sapiens, 5 h; for Emax: read-out: IL-6 (PBMC) 5 h IMax. The protocol: Frozen human PBMC (AllCells) were thawed in RPMI 1640 medium (Thermo Scientific) supplemented with 10% heat-inactivated FBS (Thermo Scientific) and recovered at 37° C. overnight. The next day, PBMC were seeded into 96-well plates at the density of 0.2 million cells per well and treated with compounds for 24 h. Then lipopolysaccharide was added at the final concentration of 10 ng/mL for 5 h. Culture supernatant was collected for subsequent measurement of IL-6 concentration by a TR-FRET-based method (Degorce, François, et al. Current chemical genomics. 2009, 3: 22) as described by the manufacturer manual (Cisbio). FRET signals were measured with PHERAstar FSX reader (BMG Labtech).

The target of assay [4] is T1, IRAK4. Nature of the assay: IRAK4 Degradation Assay with Human Serum (Karpas299, HTRF/TR-FRET). Particulars: Karpas-299 in human serum, 24 hrs treatment. An outline of the steps: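 Remaining IRAK4 measured by TR-FRET immunoassay on lysates of Karpas299 cells exposed 24 h to compound dilution series in human serum AB. DC50 derived from a Hill-slope fit of % degradation versus concentration.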

Where [5] appears, read: Karpas-299 cells, 5 h treatment, maximum percentage of degradation, read-out: IRAK4 in Karpas-299 (5 h) Dmax (%).
[6] abbreviates: Karpas-299 cells, 5 h treatment, read-out: IRAK4 in Karpas-299 (5 h) DC50.
The mark [7] stands for this setting: Karpas-299 cells, 24 h treatment, maximum percentage of degradation, read-out: IRAK4 in Karpas-299 (24 h) Dmax (%).
Where [8] appears, read: Karpas-299 cells, 24 h treatment, read-out: IRAK4 in Karpas-299 (24 h) DC50.
The mark [9] stands for this setting: Homo sapiens, maximum inhibition.

Regarding `NC(=O)c1nn([C@H]2CC[C@H](N3CCN(C(=O)[C@@H]4CCN(c5cc(F)c([C@H]6CCC(=O)NC6=O)c(F)c5)C4)CC3)CC2)cc1NC(=O)c1coc(-c2ccnc(NCC(F)(F)F)c2)n1` [Example 12, N-(3-carbamoyl-1-((1R,4r)-4-(4-((R)-1-(4-((R)-2,6-dioxopiperidin-3-yl)-3,5-difluorophenyl)pyrrolidine-3-carbonyl)piperazin-1-yl)cyclohexyl)-1H-pyrazol-4-yl)-2-(2-((2,2,2-trifluoroethyl)amino)pyridin-4-yl)oxazole-4-carboxamide], the Dmax (as a rule, the largest share of the target that was removed) at IRAK4 [1] (setting [5]) was determined as 97%; at IRAK4 [1] (setting [7]) it was 98%. Moreover, the half-maximal degradation concentration (DC50) (as a rule, the concentration at which degradation of the target reaches its halfway point) at IRAK4 [1] (setting [6]) turned out to be 5.4 nM; at IRAK4 [1] (setting [8]), 1.8 nM. The results for the IC50 in assay [2] (Homo sapiens) and in assay [3] were 25 nM and 4.6 nM, respectively. The Emax in assay [2] (setting [9]) was 90%; in assay [3] (maximum inhibition), 91%.

On to `O=C1CC[C@H](c2c(F)cc(N3CC[C@@H](C(=O)N4CCN([C@H]5CC[C@H](n6cc(NC(=O)c7coc(-c8ccnc(NCC(F)(F)F)c8)n7)c(C(F)F)n6)CC5)CC4)C3)cc2F)C(=O)N1` [Example 17, N-(3-(difluoromethyl)-1-((1R,4r)-4-(4-((R)-1-(4-((R)-2,6-dioxopiperidin-3-yl)-3,5-difluorophenyl)pyrrolidine-3-carbonyl)piperazin-1-yl)cyclohexyl)-1H-pyrazol-4-yl)-2-(2-((2,2,2-trifluoroethyl)amino)pyridin-4-yl)oxazole-4-carboxamide], for which the values for the Dmax at IRAK4 [1] (setting [5]) and at IRAK4 [1] (setting [7]) were 96% and 97%, respectively. In addition, the DC50 on IRAK4 [1] (setting [6]) stood at 8.8 nM; at IRAK4 [1] (setting [8]), 2.2 nM. Also, the results for the IC50 in assay [2] (Homo sapiens) and in assay [3] were 34 nM and 6.7 nM, respectively. The Emax in assay [2] (setting [9]) worked out at 87%; in assay [3] (maximum inhibition) it was 93%.

As for `COc1cc2nn([C@H]3CC[C@H](CN4CCN(C(=O)[C@H]5CCN(c6ccc(N7CCC(=O)NC7=O)cc6)C5)CC4)CC3)cc2cc1NC(=O)c1cccn(C2CC2)c1=O` [Example 34, 1-cyclopropyl-N-(2-((1S,4r)-4-((4-((S)-1-(4-(2,4-dioxotetrahydropyrimidin-1(2H)-yl)phenyl)pyrrolidine-3-carbonyl)piperazin-1-yl)methyl)cyclohexyl)-6-methoxy-2H-indazol-5-yl)-2-oxo-1,2-dihydropyridine-3-carboxamide], the values for the maximal degradation (Dmax) on IRAK4 [1] (setting [5]) and at IRAK4 [1] (setting [7]) were 81% and 95%, respectively. Also, the DC50 on IRAK4 [1] (setting [6]) stood at 18 nM; at IRAK4 [1] (setting [8]), 3.6 nM. Also, the IC50 (in general, the concentration at which inhibition is half-maximal) in assay [2] (Homo sapiens) amounted to 77 nM; in assay [3], 18 nM. Besides, the values for the Emax in assay [2] (setting [9]) and in assay [3] (maximum inhibition) were 72% and 85%, respectively.

On to `COc1cc2nn([C@H]3CC[C@H](N4CCN(C(=O)C5CN(c6ccc(N7CCC(=O)NC7=O)cc6)C5)CC4)CC3)cc2cc1NC(=O)c1cccc(C(F)(F)F)n1` [Example 37, N-(2-((1r,4r)-4-(4-(1-(4-(2,4-dioxotetrahydropyrimidin-1(2H)-yl)phenyl)azetidine-3-carbonyl)piperazin-1-yl)cyclohexyl)-6-methoxy-2H-indazol-5-yl)-6-(trifluoromethyl)picolinamide], for which the DC50 on IRAK4 [1] (Degradation (Karpas-299), comparison table, Linker Type B, read-out: Compound (Linker Type B) DC50) was found to be 0.7 nM; at IRAK4 [1] (setting [6]), 9.1 nM; on IRAK4 [1] (setting [8]) it was 0.7 nM. In addition, the Dmax at IRAK4 [1] (Degradation (Karpas-299), comparison table, Linker Type B, read-out: Compound (Linker Type B) Dmax (%)) turned out to be 96%; at IRAK4 [1] (setting [5]), 93%; at IRAK4 [1] (setting [7]) it was 96%. In addition, the IC50 was 34 nM in assay [2] (Homo sapiens) and 11 nM in assay [3]. Besides, the figures for the Emax in assay [2] (setting [9]) and in assay [3] (maximum inhibition) were 82% and 90%, respectively.

Turning to `CC(C)(O)c1cc2nn([C@H]3CC[C@H](N4CCN(C(=O)C5CN(c6cc(F)c([C@H]7CCC(=O)NC7=O)c(F)c6)C5)CC4)CC3)cc2cc1NC(=O)c1cccc(C(F)(F)F)n1` [Example 38, N-(2-((1r,4r)-4-(4-(1-(4-((R)-2,6-dioxopiperidin-3-yl)-3,5-difluorophenyl)azetidine-3-carbonyl)piperazin-1-yl)cyclohexyl)-6-(2-hydroxypropan-2-yl)-2H-indazol-5-yl)-6-(trifluoromethyl)picolinamide], the Dmax at IRAK4 [1] (setting [5]) was determined as 95%; on IRAK4 [1] (setting [7]), 99%. Moreover, the results for the DC50 on IRAK4 [1] (setting [6]) and at IRAK4 [1] (setting [8]) were 2.3 nM and 0.4 nM, respectively. The values for the IC50 in assay [2] (Homo sapiens) and in assay [3] were 19 nM and 2.1 nM, respectively. For the same compound, the figures for the Emax in assay [2] (setting [9]) and in assay [3] (maximum inhibition) were 87% and 91%, respectively.

Regarding `CC(C)(O)c1cc2nc(C3CCN(C4CCN(C(=O)C5CN(c6cc(F)c([C@H]7CCC(=O)NC7=O)c(F)c6)C5)CC4)CC3)cn2cc1NC(=O)c1cccc(C(F)(F)F)n1` [Example 126, (R)—N-(2-(1′-(1-(4-(2,6-dioxopiperidin-3-yl)-3,5-difluorophenyl)azetidine-3-carbonyl)-[1,4′-bipiperidin]-4-yl)-7-(2-hydroxypropan-2-yl)imidazo[1,2-a]pyridin-6-yl)-6-(trifluoromethyl)picolinamide], the Dmax was 92% at IRAK4 [1] (setting [5]) and 99% on IRAK4 [1] (setting [7]). The DC50 at IRAK4 [1] (setting [6]) amounted to 8.4 nM; on IRAK4 [1] (setting [8]), 1.1 nM. The figures for the concentration for half-maximal inhibition (IC50) in assay [2] (Homo sapiens) and in assay [3] were 43 nM and 23 nM, respectively. Further, the Emax was determined as 88% in assay [2] (setting [9]) and 90% in assay [3] (maximum inhibition).

Consider `CC(C)(O)c1cc2nn(C3CCN(C4CCN(C(=O)[C@@H]5CCN(c6cc(F)c([C@H]7CCC(=O)NC7=O)c(F)c6)C5)CC4)CC3)cc2cc1NC(=O)c1cccc(C(F)(F)F)n1` [Example 161, N-(2-(1′-((R)-1-(4-((R)-2,6-dioxopiperidin-3-yl)-3,5-difluorophenyl)pyrrolidine-3-carbonyl)-[1,4′-bipiperidin]-4-yl)-6-(2-hydroxypropan-2-yl)-2H-indazol-5-yl)-6-(trifluoromethyl)picolinamide], for which the Dmax on IRAK4 [1] (setting [5]) worked out at 91%; on IRAK4 [1] (setting [7]), 97%. Further, the figures for the 50% degradation concentration (DC50) at IRAK4 [1] (setting [6]) and on IRAK4 [1] (setting [8]) were 5 nM and 0.3 nM, respectively. Moreover, the IC50 in assay [2] (Homo sapiens) was found to be 38 nM; in assay [3], 4.9 nM. Moreover, the Emax came to 85% in assay [2] (setting [9]) and 90% in assay [3] (maximum inhibition).

Consider `COC[C@@H]1CN([C@H]2CC[C@H](n3cc4cc(NC(=O)c5ccc6cc(C#N)cnn56)c(C(C)(C)O)cc4n3)CC2)CCN1C1CN(c2cc(F)c([C@H]3CCC(=O)NC3=O)c(F)c2)C1` [Example 387, 3-cyano-N-(2-((1S,4r)-4-((S)-4-(1-(4-((R)-2,6-dioxopiperidin-3-yl)-3,5-difluorophenyl)azetidin-3-yl)-3-(methoxymethyl)piperazin-1-yl)cyclohexyl)-6-(2-hydroxypropan-2-yl)-2H-indazol-5-yl)pyrrolo[1,2-b]pyridazine-7-carboxamide], for which the Dmax at IRAK4 [1] (setting [5]) worked out at 90%; on IRAK4 [1] (setting [7]) it was 98%; on IRAK4 [4] (read-out: IRAK4 degradtion with human serum assay Dmax (%)) it was 95%. The half-maximal degradation concentration (DC50) at IRAK4 [1] (setting [6]) came out at 1.3 nM; on IRAK4 [1] (setting [8]), 0.8 nM; at IRAK4 [4] (read-out: IRAK4 degradtion with human serum assay DC50) it was 6.9 nM. This compound came in with an IC50 in assay [3] of 1.7 nM. Moreover, the Emax in assay [3] (maximum inhibition) turned out to be 53%.

In the case of `CC[C@@H]1[C@H](F)C(=O)N[C@@H]1COc1nccc2cc(C(N)=O)c(OC)cc12` [PF-06650833], in assay [2], the IC50 worked out at 19 nM. In assay [2] (maximum inhibition), the “TNF-α (THP-1) 24 h IMax” value is given as 67%. Further, the “IL-6 (PBMC) 5 h IMax” value in assay [3] (maximum inhibition) is <50%.

The values above are taken from US20250195513A1, “DEGRADATION OF IRAK4 BY CONJUGATION OF IRAK4 INHIBITORS WITH E3 LIGASE LIGAND AND METHODS OF USE” (BeiGene, Ltd., priority 2022, published 2025).
